Results published in patent US20060134248A1, “Hop acids as a replacement for antibiotics in animal feed” (priority 2002, published 2006).
Marks after values point to notes of the source that are not given here.

Columns and labels:
Conditions in all cases: hop acids 2 ppm, monensin 6 ppm
[1] = test system: Isotrichia; experiment: In vitro microbe measurements: protozoa count, Isotrichia
[2] = test system: Entodiniomorph spp; experiment: In vitro microbe measurements: protozoa count, Entodiniomorph spp / Entodinia
[3] = test system: total bacteria; experiment: In vitro microbe measurements: bacterial purine (measurement of total bacteria); format: cell-based
Source text: Proprionate is largely responsible for animal growth. […] There appears to be no effect on alfalfa protozoa and alfalfa bacterial purine by the beta acids. Again, reduction in protozoa and bacteria levels means more food and energy for animal growth.

`CC[C@@]1([C@@H]2O[C@@H]([C@H]3O[C@@](O)(CO)[C@H](C)C[C@@H]3C)C[C@@H]2C)CC[C@H]([C@]2(C)CC[C@]3(C[C@H](O)[C@@H](C)[C@@H]([C@@H](C)[C@@H](OC)[C@H](C)C(=O)O)O3)O2)O1` [monensin] was tested, and the “Protozoa, Isotrichia” value ([1]; alfalfa) was 0^c × 10^3 no/mL, the “Protozoa, Isotricha” value ([1]; barley) was 0 × 10^3 no/mL and the “Protozoa, Isotricha” value ([1]; corn) was 0.7 × 10^3 no/mL. The “Protozoa, Entodinia” value ([2]; alfalfa) was 6^c × 10^3 no/mL, the “Protozoa, Entodinia” value ([2]; barley) was 38^b × 10^3 no/mL and the “Protozoa, Entodinia” value ([2]; corn) was 28^bc × 10^3 no/mL. For the same compound, the Bacterial purines ([3]; alfalfa) was 2.6^c mg/tube, the “Protozoa and bacterial purines versus control, in words” value ([3]; alfalfa) was “most effectively eliminate” and the Bacterial purines ([3]; barley) was 1.5^b mg/tube. For the same compound, the Bacterial purines ([3]; corn) was 1.4^a Mg/tube.
